Starred links: 1 amine or outer side, 2 acyl side, 3 side chain; linkers in the order of their positions; H or OH if unused. Non-standard residues stand in square brackets, D forms with d. Residues, ends and D or L forms follow the SMILES beside them. Groups on a side chain read outwards from the residue. *: point of attachment. C20 diacid = O=C(O)CCCCCCCCCCCCCCCCCCC(=O)*; C18 diacid = O=C(O)CCCCCCCCCCCCCCCCC(=O)*; γGlu = O=C(O)[C@H](CCC(=O)[*:2])N[*:1]; X3 = O=C(CN(Cc1c[nH]cn1)[*:1])[*:2]; αMeF = C[C@](N)(Cc1ccccc1)C(=O)O; AEEA = NCCOCCOCC(=O)O; Aib = CC(C)(N)C(=O)O
Experiments:
[1] = target: human GLP-1 receptor (hGLP-1R) (Homo sapiens, UniProt P43220); assay: cAMP production (HTRF) in CHO cells expressing hGLP-1R; format: cell-based; parameters: expressed in transfected cells; conditions: for EC50: Table 7, peptides modified at position 20, cAMP in CHO hGLP-1R cells, geometric mean, read-out: hGLP-1R EC50; for % Relative Potency Ratio: Table 7, % GLP-1R activity relative to GLP-1 / % GlucR activity relative to glucagon
Outline: (§1)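 Potency values represent EC50 from 4-parameter logistic curves of HTRF % Delta F signal. Receptor-expressing CHO cells (hGCGR 2×10^5 cells/mL, hGLP-1R 1×10^5 cells/mL) were exposed for 30 min at room temperature before two-step cAMP detection.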

[2] = target: human glucagon receptor (hGCGR) (Homo sapiens, UniProt P47871); assay: cAMP production (HTRF) in CHO cells expressing hGCGR; format: cell-based; parameters: expressed in transfected cells; conditions: Table 7, peptides modified at position 20; cAMP in CHO hGCGR cells; geometric mean; read-out: hGluc-R EC50
Outline: as §1

Sequence of human glucagon receptor (hGCGR) (P47871 26-477): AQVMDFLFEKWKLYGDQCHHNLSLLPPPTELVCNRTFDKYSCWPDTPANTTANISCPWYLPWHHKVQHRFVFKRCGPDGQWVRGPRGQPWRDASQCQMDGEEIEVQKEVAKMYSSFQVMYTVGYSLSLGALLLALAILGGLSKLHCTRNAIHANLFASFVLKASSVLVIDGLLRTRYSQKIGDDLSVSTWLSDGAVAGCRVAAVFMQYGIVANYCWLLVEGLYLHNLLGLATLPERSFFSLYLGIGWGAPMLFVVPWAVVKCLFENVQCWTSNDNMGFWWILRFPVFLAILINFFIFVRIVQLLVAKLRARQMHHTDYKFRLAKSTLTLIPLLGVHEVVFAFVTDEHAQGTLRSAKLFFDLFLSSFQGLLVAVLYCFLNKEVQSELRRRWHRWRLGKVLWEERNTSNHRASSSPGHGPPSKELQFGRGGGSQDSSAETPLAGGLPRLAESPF
Sequence of human GLP-1 receptor (hGLP-1R) (P43220 24-463): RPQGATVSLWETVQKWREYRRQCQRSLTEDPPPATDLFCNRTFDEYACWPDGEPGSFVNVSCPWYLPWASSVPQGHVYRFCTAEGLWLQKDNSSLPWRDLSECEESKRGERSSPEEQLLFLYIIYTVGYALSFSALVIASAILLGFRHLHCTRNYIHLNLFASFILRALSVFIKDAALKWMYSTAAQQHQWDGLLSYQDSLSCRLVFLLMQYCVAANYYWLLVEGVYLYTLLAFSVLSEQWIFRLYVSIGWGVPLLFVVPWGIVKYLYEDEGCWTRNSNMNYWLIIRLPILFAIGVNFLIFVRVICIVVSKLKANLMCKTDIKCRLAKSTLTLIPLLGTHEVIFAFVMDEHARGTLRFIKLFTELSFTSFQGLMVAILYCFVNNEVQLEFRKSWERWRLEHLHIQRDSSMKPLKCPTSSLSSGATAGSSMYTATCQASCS

SMILES	EC50 [1] [nM]	% Relative Potency Ratio [1]	EC50 [2] [nM]
CC[C@H](C)[C@H](NC(=O)[C@H](CO)NC(=O)[C@H](CCC(N)=O)NC(=O)[C@@H](NC(=O)[C@H](Cc1ccccc1)NC(=O)[C@H](CC(=O)O)NC(=O)[C@H](CCCCNC(=O)COCCOCCNC(=O)COCCOCCNC(=O)CC[C@H](NC(=O)CC[C@H](NC(=O)CCCCCCCCCCCCCCCCCCC(=O)O)C(=O)O)C(=O)O)NC(=O)[C@H](C)NC(=O)C(C)(C)NC(=O)[C@H](CCCNC(=N)N)NC(=O)[C@H](CO)NC(=O)[C@H](CC(=O)O)NC(=O)[C@H](CC(C)C)NC(=O)[C@](C)(Cc1ccccc1)NC(=O)[C@H](CCCCN)NC(=O)[C@H](CO)NC(=O)[C@@H](NC(=O)[C@H](CC(=O)O)NC(=O)[C@H](CO)NC(=O)[C@@H](NC(=O)[C@](C)(Cc1ccccc1)NC(=O)[C@H](CO)NC(=O)CNC(=O)[C@H](Cc1c[nH]cn1)NC(=O)C(C)(C)NC(=O)[C@@H](N)Cc1c[nH]cn1)[C@@H](C)O)C(C)C)C(C)C)C(=O)N[C@@H](C)C(=O)N[C@@H](CC(N)=O)C(=O)N[C@H](C(N)=O)[C@@H](C)O [Peptide 242] (H-H[Aib]HGS[αMeF]TSDVSK[αMeF]LDSR[Aib]AK([AEEA-AEEA-γGlu-γGlu-C20 diacid])DFVQSIANT-NH2; N-terminus assumed)	0.249	9.8	1.23
CC[C@H](C)[C@H](NC(=O)[C@H](CO)NC(=O)[C@H](CCC(N)=O)NC(=O)[C@@H](NC(=O)[C@](C)(Cc1ccccc1)NC(=O)[C@H](CC(=O)O)NC(=O)[C@H](CCCCNC(=O)COCCOCCNC(=O)COCCOCCNC(=O)CC[C@H](NC(=O)CCCCCCCCCCCCCCCCC(=O)O)C(=O)O)NC(=O)[C@H](C)NC(=O)[C@H](C)NC(=O)[C@H](CCCNC(=N)N)NC(=O)[C@H](CO)NC(=O)[C@H](CC(=O)O)NC(=O)[C@H](CC(C)C)NC(=O)[C@](C)(Cc1ccccc1)NC(=O)[C@H](CCCCN)NC(=O)[C@H](CO)NC(=O)[C@@H](NC(=O)[C@H](CC(=O)O)NC(=O)[C@H](CO)NC(=O)[C@@H](NC(=O)[C@](C)(Cc1ccccc1)NC(=O)[C@H](CO)NC(=O)CNC(=O)[C@H](Cc1c[nH]cn1)NC(=O)C(C)(C)NC(=O)[C@@H](N)Cc1c[nH]cn1)[C@@H](C)O)C(C)C)C(C)C)C(=O)N[C@@H](C)C(=O)N[C@@H](CC(N)=O)C(=O)N[C@H](C(N)=O)[C@@H](C)O [Peptide 243] (H-H[Aib]HGS[αMeF]TSDVSK[αMeF]LDSRAAK([AEEA-AEEA-γGlu-C18 diacid])D[αMeF]VQSIANT-NH2)	0.0593	1.7	0.0506
CC[C@H](C)[C@H](NC(=O)[C@H](CO)NC(=O)[C@H](CCC(N)=O)NC(=O)[C@@H](NC(=O)[C@](C)(Cc1ccccc1)NC(=O)[C@H](CC(=O)O)NC(=O)[C@H](CCCCNC(=O)COCCOCCNC(=O)COCCOCCNC(=O)CC[C@H](NC(=O)CC[C@H](NC(=O)CCCCCCCCCCCCCCCCCCC(=O)O)C(=O)O)C(=O)O)NC(=O)[C@H](C)NC(=O)[C@H](C)NC(=O)[C@H](CCCNC(=N)N)NC(=O)[C@H](CO)NC(=O)[C@H](CC(=O)O)NC(=O)[C@H](CC(C)C)NC(=O)[C@](C)(Cc1ccccc1)NC(=O)[C@H](CCCCN)NC(=O)[C@H](CO)NC(=O)[C@@H](NC(=O)[C@H](CC(=O)O)NC(=O)[C@H](CO)NC(=O)[C@@H](NC(=O)[C@](C)(Cc1ccccc1)NC(=O)[C@H](CO)NC(=O)CNC(=O)[C@H](Cc1c[nH]cn1)NC(=O)C(C)(C)NC(=O)[C@@H](N)Cc1c[nH]cn1)[C@@H](C)O)C(C)C)C(C)C)C(=O)N[C@@H](C)C(=O)N[C@@H](CC(N)=O)C(=O)N[C@H](C(N)=O)[C@@H](C)O [Peptide 244] (H-H[Aib]HGS[αMeF]TSDVSK[αMeF]LDSRAAK([AEEA-AEEA-γGlu-γGlu-C20 diacid])D[αMeF]VQSIANT-NH2)	0.143	5.8	0.42
CC[C@H](C)[C@H](NC(=O)[C@H](CO)NC(=O)[C@H](CCC(=O)O)NC(=O)[C@@H](NC(=O)[C@](C)(Cc1ccccc1)NC(=O)[C@H](CC(=O)O)NC(=O)[C@H](CCCCNC(=O)COCCOCCNC(=O)COCCOCCNC(=O)CC[C@H](NC(=O)CCCCCCCCCCCCCCCCC(=O)O)C(=O)O)NC(=O)[C@H](C)NC(=O)[C@H](C)NC(=O)[C@H](CCCNC(=N)N)NC(=O)[C@H](CO)NC(=O)[C@H](CC(=O)O)NC(=O)[C@H](CC(C)C)NC(=O)[C@](C)(Cc1ccccc1)NC(=O)[C@H](CCCCN)NC(=O)[C@H](CO)NC(=O)[C@@H](NC(=O)[C@H](CC(=O)O)NC(=O)[C@H](CO)NC(=O)[C@@H](NC(=O)[C@](C)(Cc1ccccc1)NC(=O)[C@H](CO)NC(=O)CNC(=O)[C@H](Cc1c[nH]cn1)NC(=O)C(C)(C)NC(=O)[C@@H](N)Cc1c[nH]cn1)[C@@H](C)O)C(C)C)C(C)C)C(=O)N[C@@H](C)C(=O)N[C@@H](CC(N)=O)C(=O)N[C@H](C(N)=O)[C@@H](C)O [Peptide 245] (H-H[Aib]HGS[αMeF]TSDVSK[αMeF]LDSRAAK([AEEA-AEEA-γGlu-C18 diacid])D[αMeF]VESIANT-NH2)	0.11	1.1	0.0627
CC[C@H](C)[C@H](NC(=O)[C@H](CO)NC(=O)[C@H](CCC(=O)O)NC(=O)[C@@H](NC(=O)[C@](C)(Cc1ccccc1)NC(=O)[C@H](CC(=O)O)NC(=O)[C@H](CCCCNC(=O)COCCOCCNC(=O)COCCOCCNC(=O)CC[C@H](NC(=O)CC[C@H](NC(=O)CCCCCCCCCCCCCCCCCCC(=O)O)C(=O)O)C(=O)O)NC(=O)[C@H](C)NC(=O)[C@H](C)NC(=O)[C@H](CCCNC(=N)N)NC(=O)[C@H](CO)NC(=O)[C@H](CC(=O)O)NC(=O)[C@H](CC(C)C)NC(=O)[C@](C)(Cc1ccccc1)NC(=O)[C@H](CCCCN)NC(=O)[C@H](CO)NC(=O)[C@@H](NC(=O)[C@H](CC(=O)O)NC(=O)[C@H](CO)NC(=O)[C@@H](NC(=O)[C@](C)(Cc1ccccc1)NC(=O)[C@H](CO)NC(=O)CNC(=O)[C@H](Cc1c[nH]cn1)NC(=O)C(C)(C)NC(=O)[C@@H](N)Cc1c[nH]cn1)[C@@H](C)O)C(C)C)C(C)C)C(=O)N[C@@H](C)C(=O)N[C@@H](CC(N)=O)C(=O)N[C@H](C(N)=O)[C@@H](C)O [Peptide 246] (H-H[Aib]HGS[αMeF]TSDVSK[αMeF]LDSRAAK([AEEA-AEEA-γGlu-γGlu-C20 diacid])D[αMeF]VESIANT-NH2)	0.32	3.4	0.557
CC[C@H](C)[C@H](NC(=O)[C@H](Cc1c[nH]c2ccccc12)NC(=O)[C@H](CCC(N)=O)NC(=O)[C@@H](NC(=O)[C@](C)(Cc1ccccc1)NC(=O)[C@H](CC(=O)O)NC(=O)[C@H](CCCCNC(=O)COCCOCCNC(=O)COCCOCCNC(=O)CC[C@H](NC(=O)CC[C@H](NC(=O)CCCCCCCCCCCCCCCCCCC(=O)O)C(=O)O)C(=O)O)NC(=O)[C@H](C)NC(=O)[C@H](C)NC(=O)[C@H](CCCNC(=N)N)NC(=O)[C@H](CO)NC(=O)[C@H](CC(=O)O)NC(=O)[C@H](CC(C)C)NC(=O)[C@](C)(Cc1ccccc1)NC(=O)[C@H](CCCCN)NC(=O)[C@H](CO)NC(=O)[C@@H](NC(=O)[C@H](CC(=O)O)NC(=O)[C@H](CO)NC(=O)[C@@H](NC(=O)[C@](C)(Cc1ccccc1)NC(=O)[C@H](CO)NC(=O)CNC(=O)[C@H](Cc1c[nH]cn1)NC(=O)[C@H](CO)NC(=O)CNCc1c[nH]cn1)[C@@H](C)O)C(C)C)C(C)C)C(=O)N[C@@H](C)C(=O)N[C@@H](CC(N)=O)C(=O)N[C@H](C(N)=O)[C@@H](C)O [Peptide 248] (H-[X3]SHGS[αMeF]TSDVSK[αMeF]LDSRAAK([AEEA-AEEA-γGlu-γGlu-C20 diacid])D[αMeF]VQWIANT-NH2; N-terminus assumed)	1.09	24.6	13.6
CC[C@H](C)[C@H](NC(=O)[C@H](CO)NC(=O)[C@H](CCC(=O)O)NC(=O)[C@@H](NC(=O)[C@](C)(Cc1ccccc1)NC(=O)[C@H](CC(=O)O)NC(=O)[C@H](CCCCNC(=O)COCCOCCNC(=O)COCCOCCNC(=O)CC[C@H](NC(=O)CC[C@H](NC(=O)CCCCCCCCCCCCCCCCCCC(=O)O)C(=O)O)C(=O)O)NC(=O)[C@H](C)NC(=O)C(C)(C)NC(=O)[C@H](CCCNC(=N)N)NC(=O)[C@H](CO)NC(=O)[C@H](CC(=O)O)NC(=O)[C@H](CC(C)C)NC(=O)[C@](C)(Cc1ccccc1)NC(=O)[C@H](CCCCN)NC(=O)[C@H](CO)NC(=O)[C@@H](NC(=O)[C@H](CC(=O)O)NC(=O)[C@H](CO)NC(=O)[C@@H](NC(=O)[C@](C)(Cc1ccccc1)NC(=O)[C@H](CO)NC(=O)CNC(=O)[C@H](Cc1c[nH]cn1)NC(=O)C(C)(C)NC(=O)[C@@H](N)Cc1c[nH]cn1)[C@@H](C)O)C(C)C)C(C)C)C(=O)N[C@@H](C)C(=O)N[C@@H](CC(N)=O)C(=O)N[C@H](C(N)=O)[C@@H](C)O [Peptide 249] (H-H[Aib]HGS[αMeF]TSDVSK[αMeF]LDSR[Aib]AK([AEEA-AEEA-γGlu-γGlu-C20 diacid])D[αMeF]VESIANT-NH2)	0.558	1.9	0.545

Reference: patent publication US20250353891A1 (MEDIMMUNE LIMITED, priority 2022, published 2025)
